Like-named read-outs stand apart in the source and are kept apart here.
Assays:
[1] = Metabolite profiling and quantification in urine (HPLC-MS2 with on-line radioactivity detector); type: in vivo, humans; conditions: human, oral 207 μmol 14C-EC, mean ± SEM n=8; for Metabolite present in urine, collection period 0–4 h / Metabolite present in urine, collection period 4–8 h / Metabolite present in urine, collection period 8–12 h / Metabolite present in urine, collection period 12–24 h / Metabolite present in urine, collection period 24–48 h: – = not detected
Method: (§1) The study was a single-center, open-label, and non-randomized study with two distinct elements: a run-in phase to establish a more defined dietary background of dietary flavanols and procyanidins and the subsequent ^14C-EC ADME study (Fig. 1B). Participants (n = 12) were enrolled in the run-in phase (day –17 to day –4) and asked to supplement their daily diet for 14 days with a commercially available flavanol-containing cocoa-based drink (250 mg cocoa flavanols; 40 mg of EC). This was followed by a 4-day period (day –4 to 0) of a low-flavanol diet. One day (study day -1) prior to the initialization of the ^14C-EC ADME study, all eligible participants were accommodated under controlled conditions at a metabolic research facility (Covance Clinical Pharmacology Inc., Wisconsin) until completion of the study. Based on the compliance of the first part of the study, 8 participants were selected to participate in the ^14C-EC ADME study. During the ^14C-EC ADME study (Fig. 1B.), volunteers received a low-flavanol, standardized high-fiber diet, and were encouraged to maintain an adequate level of hydration (water ad libitum). Volunteers were asked to fast for 8 h before the initiation of the study and for at least 4 h after the intake of the ^14C-EC test drink (water ad libitum). Venous blood samples were taken using Vacutainer collection tubes, containing potassium EDTA at 0 h (just prior to ^14C-EC ingestion), and at 0.25, 0.5, 1, 1.5, 2, 2.5, 3, 4, 6, 8, 10, 12, 16, 24, 36, and 48 h after test drink consumption. Plasma was obtained by whole blood centrifugation at 2000 × g for 15 min at 5 °C, separated into aliquots and stored at −80 °C until analysis. All urine and feces from the time just prior to the consumption of the test drink were collected at different time intervals for radioactivity and metabolite profiling. Clinical parameters and laboratory evaluations of participants were assessed at screening, on study day –1, and after completing the study, as detailed in Supplementary Methods.
(§2) Samples were processed as described previously[18] and analyzed by HPLC-MS^2 in conjunction with an on-line HPLC-radioactivity monitor as described in SI Materials and Methods. Identification of metabolites involved comparing the retention time with authentic standards and MS^2 fragmentation patterns (Supplementary Methods). Quantification of metabolites in urine was based on HPLC radioactivity peak area (limit of quantification: 10^3 dpm). Due to the low levels of radioactivity, quantification in plasma was based on targeted HPLC-MS^2 using standard curves obtained with authentic standards (Supplementary Methods).
HPLC-MS identifications of radiolabeled [2-14C](−)-epicatechin metabolites in urine Urine was analyzed with radioactivity and mass spectrometry (MS) detection using a 250 mm x 4.6 mm i.d. 5 µm Luna Phenyl-Hexyl column (Phenomenex, Macclesfield, UK) […]
formic acid. Metabolite identification was performed by 1) co-chromatography of metabolites with reference compounds and a comparison of their MS fragmentation patterns 2, 2) by comparing m/z fragmentation patterns with earlier in-house observed […]
patterns to databases of metabolites reported in earlier polyphenol feeding studies5-7.
Supplementary Table S2, which also provides information on the MSI MI (Metabolite Standards Initiative – Metabolites Identification) level, a confidence level for identification where level 1 stands for fully elucidated (i.e., by comparison with a standard) and level 2 for a well characterized, but not yet fully structurally elucidated 8

[2] = Metabolite profiling and pharmacokinetics in plasma (targeted HPLC-MS2); type: in vivo, humans; conditions: for Cmax / AUC(0-t) / half-life / Tmax / AUC0-24h / T1/2 (elimination half-life): mean ± SEM n=8; for AUC(0-t): read-out: AUC0-24h; for half-life: read-out: T1/2 (elimination half-life) (converted); for Identification as human EC metabolite: human plasma and urine, radiolabeled tracer
Method: as §1, §2
Data are expressed as mean values ± standard error, or as otherwise specified. Pharmacokinetic parameters were calculated using non-compartmental analysis with WinNonlin (Pharsight Corporation, Version 5.2).
5-20% acetonitrile in 0.1 % formic acid. Supplementary Table S2 provides details of HPLC retention times and the m/z values that were monitored.
Supplementary Table S2. Detection of (−)-epicatechin metabolites. HPLC retention times and selected reaction monitoring ions used for the HPLC-MS analysis of (−)-epicatechin metabolites in plasma. […]
Structurally related (-)-epicatechin metabolites in humans: assessment using de novo chemically synthesized authentic standards. Free Radic Biol Med 52, 1403- […]
3 Borges, G. et al. Bioavailability of multiple components following acute ingestion of a polyphenol-rich juice drink. Mol Nutr Food Res 54 Suppl 2, S268-277, […]
4 Stalmach, A. et al. Absorption, metabolism, and excretion of green tea flavan-3-ols in humans with an ileostomy. Mol Nutr Food Res 54, 323-334,

[3] = male, human plasma, oral 60 mg 14C-EC
[4] = male, human plasma, oral 60 mg 14C-EC, read-out: Tmax
[5] = human plasma, oral 60 mg 14C-EC

Compound: O=C(O)CNC(=O)c1ccccc1 [Hippuric acid]
- Metabolite present in urine, collection period 0–48 h [1]: 26.4 ± 7.1 μ mol
- Metabolite present in urine, collection period 0–4 h [1]: 0.6 ± 0.4 μ mol
- Metabolite present in urine, collection period 4–8 h [1]: 7.2 ± 3.9 μ mol
- Metabolite present in urine, collection period 8–12 h [1]: 5.6 ± 2.6 μ mol
- Metabolite present in urine, collection period 12–24 h [1]: 7.1 ± 2.1 μ mol
- Metabolite present in urine, collection period 24–48 h [1]: 5.9 ± 4.1 μ mol

Compound: O=S(=O)(O)Oc1cc([C@H]2Oc3cc(O)cc(O)c3C[C@H]2O)ccc1O [(−)-Epicatechin-3′-sulfate, (−)-epicatechin-3′-sulfate]
- Metabolite present in urine, collection period 0–48 h [1]: 7.7 ± 0.9 μ mol
- Metabolite present in urine, collection period 0–4 h [1]: 6.0 ± 0.7 μ mol
- Metabolite present in urine, collection period 4–8 h [1]: 1.2 ± 0.4 μ mol
- Metabolite present in urine, collection period 8–12 h [1]: 0.3 ± 0.1 μ mol
- Metabolite present in urine, collection period 12–24 h [1]: 0.2 ± 0.2 μ mol
- Cmax [2, 3]: 191 ± 17 nM
- AUC(0-t) [2, 3]: 0.633 ± 0.135 µM·h
- half-life [2, 3]: 2 ± 0.3 h
- Tmax [2, 4]: 1.1 ± 0.1 h

Compound: COc1cc([C@H]2Oc3cc(O)cc(O[C@@H]4O[C@H](C(=O)O)[C@@H](O)[C@H](O)[C@H]4O)c3C[C@H]2O)ccc1O [3′-O-methyl(−)-epicatechin-5-O-β-D-glucuronide]
- AUC0-24h [2, 5]: 0.025 ± 0.01 µM·h
- Cmax [2, 5]: 23 ± 5 nM
- T1/2 (elimination half-life) [2, 5]: 1.3 ± 0.2 h
- Tmax [2, 5]: 0.8 ± 0.2 h
- Relative amount (% of total) of individual SREM in plasma ([2]; human, 1 h post 14C-EC intake, Fig. 4A): < 3%

Compound: COc1cc([C@H]2Oc3cc(OS(=O)(=O)O)cc(O)c3C[C@H]2O)ccc1O [3′-O-Methyl-(−)-epicatechin-7-sulfate, 3′-O-methyl-(−)-epicatechin-7-sulfate]
- Metabolite present in urine, collection period 0–48 h [1]: 1.2 ± 0.3 μ mol
- Metabolite present in urine, collection period 0–4 h [1]: 0.9 ± 0.2 μ mol
- Metabolite present in urine, collection period 4–8 h [1]: 0.3 ± 0.1 μ mol
- AUC0-24h [2, 5]: 1.03 ± 0.26 µM·h
- Cmax [2, 5]: 159 ± 20 nM
- T1/2 (elimination half-life) [2, 5]: 2.4 ± 0.2 h
- Tmax [2, 5]: 1.1 ± 0.1 h

Compound: COc1ccc([C@H]2Oc3cc(OS(=O)(=O)O)cc(O)c3C[C@H]2O)cc1O [4′-O-Methyl-(−)-epicatechin-7-sulfate]
- Metabolite present in urine, collection period 0–48 h [1]: 0.4 ± 0.2 μ mol
- Metabolite present in urine, collection period 0–4 h [1]: 0.3 ± 0.1 μ mol
- Metabolite present in urine, collection period 4–8 h [1]: 0.1 ± 0.1 μ mol
- AUC0-24h [2, 5]: 0.166 ± 0.054 µM·h
- Cmax [2, 5]: 33 ± 5 nM
- T1/2 (elimination half-life) [2, 5]: 2.6 ± 0.5 h
- Tmax [2, 5]: 1.4 ± 0.2 h

Compound: O=C1CCC(Cc2ccc(O)c(OS(=O)(=O)O)c2)O1 (stereo not drawn) [5-(4′-hydroxyphenyl)-γ-valerolactone-3′-sulfate]
- Metabolite present in urine, collection period 0–48 h [1]: 38.0 ± 4.7 μ mol
- Metabolite present in urine, collection period 0–4 h [1]: 3.6 ± 1.1 μ mol
- Metabolite present in urine, collection period 4–8 h [1]: 16.0 ± 3.0 μ mol
- Metabolite present in urine, collection period 8–12 h [1]: 9.8 ± 2.0 μ mol
- Metabolite present in urine, collection period 12–24 h [1]: 8.1 ± 2.9 μ mol
- Metabolite present in urine, collection period 24–48 h [1]: 0.5 ± 0.5 μ mol
- Cmax [2, 3]: 272 ± 56 nM
- AUC(0-t) [2, 3]: 7.59 ± 2.68 µM·h
- half-life [2, 3]: 6.3 ± 1.7 h
- Tmax [2, 4]: 6.4 ± 1 h
- concentration at 24 h ([2]; male, human plasma, oral 60 mg 14C-EC, read-out: Plasma concentration 24 h after ingestion): ~50 nM

Compound: O=C1CCC(Cc2ccc(O)c(O[C@@H]3O[C@H](C(=O)O)[C@@H](O)[C@H](O)[C@H]3O)c2)O1 (stereo partly drawn) [5-(4′-Hydroxyphenyl)-γ-valerolactone-3′-O-glucuronide]
- Cmax [2, 3]: 125 ± 30 nM
- AUC(0-t) [2, 3]: 1.91 ± 0.787 µM·h
- half-life [2, 3]: 3.1 ± 0.6 h
- Tmax [2, 4]: 6.8 ± 0.8 h

Compound: O=C(O)[C@H]1O[C@@H](Oc2cc(O)c3c(c2)O[C@H](c2ccc(O)c(O)c2)[C@H](O)C3)[C@H](O)[C@@H](O)[C@@H]1O [(−)-Epicatechin-7-O-glucuronide, (−)-epicatechin-7-O-β-D-glucuronide]
- AUC0-24h [2, 5]: 0.045 ± 0.014 µM·h
- Cmax [2, 5]: 22 ± 7 nM
- T1/2 (elimination half-life) [2, 5]: 1.7 ± 0.3 h
- Tmax [2, 5]: 0.8 ± 0.1 h

Compound: COc1cc([C@H]2Oc3cc(O[C@@H]4O[C@H](C(=O)O)[C@@H](O)[C@H](O)[C@H]4O)cc(O)c3C[C@H]2O)ccc1O [3′-O-methyl(−)-epicatechin-7-O-β-D-glucuronide]
- AUC0-24h [2, 5]: 0.077 ± 0.031 µM·h
- Cmax [2, 5]: 39 ± 5 nM
- T1/2 (elimination half-life) [2, 5]: 1.3 ± 0.3 h
- Tmax [2, 5]: 0.9 ± 0.1 h

Compound: O=C1CCC(Cc2ccc(O[C@@H]3O[C@H](C(=O)O)[C@@H](O)[C@H](O)[C@H]3O)c(O)c2)O1 (stereo partly drawn) [5-(3′-Hydroxyphenyl)-γ-valerolactone-4′-O-glucuronide]
- AUC0-24h [2, 5]: 1.33 ± 0.396 µM·h
- Cmax [2, 5]: 52 ± 9 nM
- T1/2 (elimination half-life) [2, 5]: 4.4 ± 1.3 h
- Tmax [2, 5]: 6.1 ± 0.8 h

Compound: O=C(O)CCC(O)Cc1cccc(OS(=O)(=O)O)c1 (stereo not drawn) [5-(Phenyl)-4-hydroxyvaleric acid-3′-sulfate]
- Metabolite present in urine, collection period 0–48 h [1]: 2.9 ± 1.6 μ mol
- Metabolite present in urine, collection period 4–8 h [1]: 1.9 ± 1.0 μ mol
- Metabolite present in urine, collection period 8–12 h [1]: 0.3 ± 0.2 μ mol
- Metabolite present in urine, collection period 12–24 h [1]: 0.7 ± 0.7 μ mol

Compound: O=C(O)CNC(=O)c1cccc(O)c1 [3′-Hydroxyhippuric acid]
- Metabolite present in urine, collection period 0–48 h [1]: 16.9 ± 5.8 μ mol
- Metabolite present in urine, collection period 4–8 h [1]: 1.6 ± 0.5 μ mol
- Metabolite present in urine, collection period 8–12 h [1]: 2.8 ± 0.7 μ mol
- Metabolite present in urine, collection period 12–24 h [1]: 7.0 ± 2.9 μ mol
- Metabolite present in urine, collection period 24–48 h [1]: 5.5 ± 2.3 μ mol

Compound: O=S(=O)(O)Oc1ccc([C@H]2Oc3cc(O)cc(O)c3C[C@H]2O)cc1O [(−)-epicatechin-4′-sulfate, reference compound]
- Identification as human EC metabolite [2]: could not be identified by us

Compound: O=C1CCC(Cc2cccc(OS(=O)(=O)O)c2)O1 (stereo not drawn) [5-(Phenyl)-γ-valerolactone-3′-sulfate]
- Metabolite present in urine, collection period 0–48 h [1]: 4.7 ± 2.7 μ mol
- Metabolite present in urine, collection period 0–4 h [1]: 0.1 ± 0.1 μ mol
- Metabolite present in urine, collection period 4–8 h [1]: 2.4 ± 1.1 μ mol
- Metabolite present in urine, collection period 8–12 h [1]: 1.2 ± 0.9 μ mol
- Metabolite present in urine, collection period 12–24 h [1]: 1.0 ± 0.8 μ mol

Compound: 5-(Hydroxyphenyl)-γ-hydroxyvaleric acid-sulfate
- AUC0-24h [2, 5]: 1.49 ± 0.475 µM·h
- Cmax [2, 5]: 56 ± 9 nM
- T1/2 (elimination half-life) [2, 5]: 7.6 ± 3.5 h
- Tmax [2, 5]: 5.9 ± 0.6 h

Compound: O=S(=O)(O)Oc1cc(O)c2c(c1)O[C@H](c1ccc(O)c(O)c1)[C@H](O)C2 [(−)-Epicatechin-7-sulfate]
- AUC0-24h [2, 5]: 0.043 ± 0.016 µM·h
- Cmax [2, 5]: 19 ± 3 nM
- T1/2 (elimination half-life) [2, 5]: 2.2 ± 0.4 h
- Tmax [2, 5]: 1.1 ± 0.2 h

Compound: O=C(O)[C@H]1O[C@@H](Oc2ccc([C@H]3Oc4cc(O)cc(O)c4C[C@H]3O)cc2O)[C@H](O)[C@@H](O)[C@@H]1O [(−)-epicatechin-4′-β-D-glucuronide, reference compound]
- Identification as human EC metabolite [2]: could not be identified by us

Compound: 5-(Phenyl)-γ-valerolactone-O-sulfate-O-glucuronide
- AUC0-24h [2, 5]: 1.02 ± 0.481 µM·h
- Cmax [2, 5]: 39 ± 9 nM
- T1/2 (elimination half-life) [2, 5]: 6.4 ± 2.2 h
- Tmax [2, 5]: 5.5 ± 1.1 h

Compound: Hydroxyphenylacetic acid-sulfate
- Metabolite present in urine, collection period 0–48 h [1]: 2.9 ± 1.1 μ mol
- Metabolite present in urine, collection period 4–8 h [1]: 0.9 ± 0.5 μ mol
- Metabolite present in urine, collection period 8–12 h [1]: 0.8 ± 0.6 μ mol
- Metabolite present in urine, collection period 12–24 h [1]: 1.2 ± 0.4 μ mol
